Assay results from PubChem BioAssay (NCI).
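Values below derive from 48-hour exposures of cells grown in 96-well plates, with endpoints linearly interpolated between the two concentrations bracketing the appropriate inhibition level. TGI denotes the concentration required for complete inhibition of growth.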

Legend:
Test in all cases: NCI tumour cell line growth inhibition, 48 h
[1] = test system: EKVX NSCLC
[2] = test system: MDA-N
[3] = test system: MOLT-4 leukemia
[4] = test system: HS 578T breast
[5] = test system: UACC-62 melanoma
[6] = test system: CCRF-CEM leukemia
[7] = test system: M14 melanoma
[8] = test system: SR leukemia
[9] = test system: NCI-H522 lung
[10] = test system: OVCAR-3 ovarian
[11] = test system: MDA-MB-435
[12] = test system: UACC-257 melanoma
[13] = test system: UO-31 renal
[14] = test system: 786-0 renal
[15] = test system: SNB-19 CNS
[16] = test system: NCI-H23 lung
[17] = test system: T-47D breast
[18] = test system: U251 CNS

## N#Cc1ccc(-c2nc3c(N)ncnc3o2)cc1
[1]
  TGI: > 100 µM
[2]
  TGI: > 100 µM
[3]
  TGI: > 100 µM
[4]
  TGI: > 100 µM
[5]
  TGI: > 100 µM
[6]
  TGI: > 100 µM
[7]
  TGI: > 100 µM
[8]
  TGI: > 100 µM
[9]
  TGI: > 100 µM
[10]
  TGI: > 100 µM
[11]
  TGI: > 100 µM
[12]
  TGI: > 100 µM
[13]
  TGI: > 100 µM
[14]
  TGI: > 100 µM
[15]
  TGI: > 100 µM
[16]
  TGI: > 100 µM
[17]
  TGI: > 100 µM

## Nn1c(C23CC4CC(CC(C4)C2)C3)n[nH]c1=S
[1]
  TGI: > 100 µM
[2]
  TGI: > 100 µM
[3]
  TGI: > 100 µM
[4]
  TGI: > 100 µM
[5]
  TGI: > 100 µM
[6]
  TGI: > 100 µM
[7]
  TGI: > 100 µM
[8]
  TGI: > 100 µM
[9]
  TGI: > 100 µM
[10]
  TGI: > 100 µM
[11]
  TGI: > 100 µM
[18]
  TGI: > 100 µM
[13]
  TGI: > 100 µM
[14]
  TGI: > 100 µM
[15]
  TGI: > 100 µM
[16]
  TGI: > 100 µM
[17]
  TGI: > 100 µM

## CC(C)(C)C1CCC(=O)/C(=C/CC2CC(=O)N(c3ccccc3)C(=O)C2)C1 (configuration not stated)
[1]
  TGI: 60.2 µM
[2]
  TGI: 66.9 µM
[3]
  TGI: 75.2 µM
[4]
  TGI: 94.5 µM
[5]
  TGI: 27.7 µM
[8]
  TGI: 41.5 µM
[9]
  TGI: 39.2 µM
[10]
  TGI: 47.7 µM
[11]
  TGI: 64.8 µM
[18]
  TGI: 31 µM
[12]
  TGI: 28.2 µM
[13]
  TGI: 30.2 µM
[14]
  TGI: 38.3 µM
[15]
  TGI: 51.6 µM
[16]
  TGI: 34.6 µM
[17]
  TGI: 48.6 µM

## CC1(C)N/C(=C\[N+](=O)[O-])C(C)(C)N1O
[1]
  TGI: > 10 µM
[2]
  TGI: > 10 µM
[3]
  TGI: > 10 µM
[4]
  TGI: > 10 µM
[5]
  TGI: > 10 µM
[6]
  TGI: > 10 µM
[7]
  TGI: > 10 µM
[8]
  TGI: > 10 µM
[9]
  TGI: > 10 µM
[10]
  TGI: > 10 µM
[11]
  TGI: > 10 µM
[18]
  TGI: > 10 µM
[12]
  TGI: > 10 µM
[14]
  TGI: > 10 µM
[15]
  TGI: > 10 µM
[16]
  TGI: > 10 µM
[17]
  TGI: > 10 µM

## ONC1=Nc2cc(Cl)ccc2C(=S)N2CSCC12 (configuration not stated)
[1]
  TGI: > 100 µM
[2]
  TGI: > 100 µM
[3]
  TGI: > 100 µM
[4]
  TGI: > 100 µM
[5]
  TGI: > 100 µM
[6]
  TGI: > 100 µM
[7]
  TGI: > 100 µM
[8]
  TGI: > 100 µM
[9]
  TGI: > 100 µM
[10]
  TGI: > 100 µM
[11]
  TGI: > 100 µM
[18]
  TGI: > 100 µM
[12]
  TGI: > 100 µM
[13]
  TGI: > 100 µM
[14]
  TGI: > 100 µM
[15]
  TGI: > 100 µM
[17]
  TGI: > 100 µM

## C=C(CCOC)CCC1CCCCC(CN(C)C)C1=O (configuration not stated)
[1]
  TGI: > 100 µM
[2]
  TGI: > 100 µM
[3]
  TGI: > 100 µM
[4]
  TGI: > 100 µM
[5]
  TGI: > 100 µM
[6]
  TGI: > 100 µM
[7]
  TGI: > 100 µM
[8]
  TGI: > 100 µM
[9]
  TGI: > 100 µM
[10]
  TGI: > 100 µM
[11]
  TGI: > 100 µM
[18]
  TGI: > 100 µM
[13]
  TGI: > 100 µM
[14]
  TGI: > 100 µM
[15]
  TGI: > 100 µM
[16]
  TGI: > 100 µM
[17]
  TGI: > 100 µM

## Nc1cc([N+](=O)[O-])ccc1C(=O)N1CCC[C@H]1CO
[1]
  TGI: > 100 µM
[2]
  TGI: > 100 µM
[3]
  TGI: > 100 µM
[4]
  TGI: > 100 µM
[5]
  TGI: > 100 µM
[6]
  TGI: > 100 µM
[8]
  TGI: > 100 µM
[9]
  TGI: > 100 µM
[11]
  TGI: > 100 µM
[18]
  TGI: > 100 µM
[12]
  TGI: > 100 µM
[13]
  TGI: > 100 µM
[14]
  TGI: > 100 µM
[15]
  TGI: > 100 µM
[16]
  TGI: > 100 µM
[17]
  TGI: > 100 µM
